Source: patent US9593110B2, “Neprilysin inhibitors” (Theravence Biopharma R&D IP, LLC, priority 2014, dated 2017)

Target: human NEP (Homo sapiens (Human), UniProt P08473)
Test: In vitro enzyme inhibition assay at human NEP
Details: pKi, recombinant human NEP, fluorogenic peptide substrate, 37° C.
Protocol: The inhibitory activities of compounds at human and rat neprilysin (EC 3.4.24.11; NEP) and human angiotensin converting enzyme (ACE) were determined using in vitro assays as described below.
The assays were performed in 384-well white opaque plates at 37° C. using the fluorogenic peptide substrates at a concentration of 10 μM in Assay Buffer (NEP: 50 mM HEPES, pH 7.5, 100 mM NaCl, 0.01% polyethylene glycol sorbitan monolaurate (Tween-20), 10 μM ZnSO4; ACE: 50 mM HEPES, pH 7.5, 100 mM NaCl, 0.01% Tween-20, 1 μM ZnSO4).
Test compounds were assayed over the range of concentrations from 10 μM to 20 pM. Test compounds were added to the enzymes and incubated for 30 minute at 37° C. prior to initiating the reaction by the addition of substrate.
Plates were read on a fluorometer with excitation and emission wavelengths set to 320 nm and 405 nm, respectively Inhibition constants were obtained by nonlinear regression of the data using the equation (GraphPad Software, Inc., San Diego, Calif.): v=v0/[1+(I/K′)] where v is the reaction rate, v0 is the uninhibited reaction rate, I is the inhibitor concentration and K′ is the apparent inhibition constant.

human NEP, sequence (P08473 52-750): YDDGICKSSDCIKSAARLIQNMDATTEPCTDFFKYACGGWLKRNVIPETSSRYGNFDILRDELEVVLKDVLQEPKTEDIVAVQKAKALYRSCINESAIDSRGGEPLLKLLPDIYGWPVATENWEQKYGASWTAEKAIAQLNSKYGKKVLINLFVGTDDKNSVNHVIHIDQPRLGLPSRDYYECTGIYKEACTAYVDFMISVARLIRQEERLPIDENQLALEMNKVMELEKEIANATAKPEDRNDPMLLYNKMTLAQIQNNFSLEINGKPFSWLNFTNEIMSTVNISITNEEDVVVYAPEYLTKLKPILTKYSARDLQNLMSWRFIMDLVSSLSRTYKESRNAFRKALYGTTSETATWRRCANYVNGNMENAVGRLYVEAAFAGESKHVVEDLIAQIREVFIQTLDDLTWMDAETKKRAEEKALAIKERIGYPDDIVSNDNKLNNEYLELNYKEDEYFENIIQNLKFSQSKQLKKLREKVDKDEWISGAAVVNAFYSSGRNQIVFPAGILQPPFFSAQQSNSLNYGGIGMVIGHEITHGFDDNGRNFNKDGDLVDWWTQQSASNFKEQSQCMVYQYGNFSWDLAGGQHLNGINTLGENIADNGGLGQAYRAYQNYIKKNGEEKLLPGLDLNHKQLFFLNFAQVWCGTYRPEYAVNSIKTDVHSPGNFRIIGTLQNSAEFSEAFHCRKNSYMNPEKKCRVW

| SMILES | Ki [nM] |
| --- | --- |
| Cc1cnc(C(=O)N[C@H](Cc2ccc(-c3cc(Cl)ccc3F)cc2)C[C@@H](CNC(=O)CN)C(=O)O)o1 [Example 43, (2S,4S)-2-[(2-Aminoacetylamino)methyl]-5-(5′-chloro-2′-fluorobiphenyl-4-yl)-4-[(5-methyloxazole-2-carbonyl)amino]pentanoic Acid] | ≤ 1 |
| N[C@H](C[C@@H](Cc1ccc(-c2cc(Cl)ccc2F)cc1)NC(=O)c1ccns1)C(=O)O [Example 16-8, (2R,4R)-2-Amino-5-(5′-chloro-2′-fluorobiphenyl-4-yl)-4-[(isothiazole-5-carbonyl)amino]-pentanoic acid] | 3.16 to 10 |
| O=C(N[C@H](Cc1ccc(-c2cc(Cl)ccc2F)cc1)C[C@@H](CN1CC(F)C1)C(=O)O)c1cnn[nH]1 [Example 91b, (2S,4S)-5-(5′-Chloro-2′-fluorobiphenyl-4-yl)-2-(3-fluoroazetidin-1-ylmethyl)-4-[(3H-[1,2,3]triazole-4-carbonyl)amino]pentanoic Acid] | ≤ 1 |
| CN(C)CC(=O)N[C@H](C[C@@H](Cc1ccc(-c2cc(Cl)ccc2F)cc1)NC(=O)c1cnn[nH]1)C(=O)O [Example 64, (2R,4R)-5-(5′-Chloro-2′-fluorobiphenyl-4-yl)-2-(2-dimethylaminoacetylamino)-4-[(3H-[1,2,3]triazole-4-carbonyl)amino]pentanoic Acid] | 1.26 to 3.16 |
| Cc1cnc(C(=O)N[C@H](Cc2ccc(-c3cc(Cl)ccc3F)cc2)C[C@@H](CCN)C(=O)O)o1 [Example 23, (2R,4S)-2-(2-Aminoethyl)-5-(5′-chloro-2′-fluorobiphenyl-4-yl)-4-[(5-methyloxazole-2-carbonyl)amino]pentanoic Acid] | 1.26 to 3.16 |
| CC(C)c1coc(C(=O)N[C@H](Cc2ccc(-c3cc(Cl)ccc3F)cc2)C[C@@H](NC(=O)[C@@H](N)CO)C(=O)O)n1 [Example 42-2, (2R,4R)-2-((S)-2-Amino-3-hydroxypropionylamino)-5-(5′-chloro-2′-fluorobiphenyl-4-yl)-4-[(4-isopropyloxazole-2-carbonyl)amino]pentanoic Acid] | 1.26 to 3.16 |
| CC(=O)N[C@H](C[C@@H](Cc1ccc(-c2ccccc2F)cc1)NC(=O)c1c[nH]nn1)C(=O)O [Example 25, (2R,4R)-2-Acetylamino-5-(2′-fluorobiphenyl-4-yl)-4-[(1H-[1,2,3]triazole-4-carbonyl)amino]pentanoic Acid] | 3.16 to 10 |
| NCCCC[C@H](N)C(=O)N[C@H](C[C@@H](Cc1ccc(-c2cc(Cl)ccc2F)cc1)NC(=O)c1cnn[nH]1)C(=O)O [Example 56, (2R,4R)-5-(5′-Chloro-2′-fluorobiphenyl-4-yl)-2-((S)-2,6-diaminohexanoylamino)-4-[(3H-[1,2,3]triazole-4-carbonyl)amino]pentanoic Acid] | 1.26 to 3.16 |
| CCOc1nc(C(=O)N[C@H](Cc2ccc(-c3cc(Cl)ccc3F)cc2)C[C@@H](N)C(=O)O)co1 [Example 16-5, (2R,4R)-2-Amino-5-(5′-chloro-2′-fluorobiphenyl-4-yl)-4-[(2-ethoxyoxazole-4-carbonyl)-amino]pentanoic acid] | 3.16 to 10 |

Same assay, conditions: recombinant human NEP, fluorogenic peptide substrate, 37° C.

| SMILES | pKi |
| --- | --- |
| CNCCCC(=O)N[C@H](C[C@@H](Cc1ccc(-c2cc(Cl)ccc2F)cc1)NC(=O)c1c[nH]nn1)C(=O)O [Example 71, (2R,4R)-5-(5′-Chloro-2′-fluorobiphenyl-4-yl)-2-(4-methylamino-butyrylamino)-4-[(1H-[1,2,3]triazole-4-carbonyl)amino]pentanoic Acid] | ≧9.0 |
| N[C@@H](Cc1ccccc1)C(=O)N[C@H](C[C@@H](Cc1ccc(-c2cc(Cl)ccc2F)cc1)NC(=O)c1cnn[nH]1)C(=O)O [Example 57, (2R,4R)-2-((S)-2-Amino-3-phenylpropionylamino)-5-(5′-chloro-2′-fluorobiphenyl-4-yl)-4-[(3H-[1,2,3]triazole-4-carbonyl)amino]pentanoic Acid] | ≧9.0 |
| CCOC[C@H](C[C@@H](Cc1ccc(-c2cccc(Cl)c2)cc1)NC(=O)c1n[nH]c(C(F)(F)F)n1)C(=O)O [Example 9-3, (2S,4S)-5-(3′-Chlorobiphenyl-4-yl)-2-ethoxymethyl-4-[(5-trifluoromethyl-1H-[1,2,4]triazole-3-carbonyl)amino]pentanoic acid] | ≧9.0 |
| NCCCCC(=O)N[C@H](C[C@@H](Cc1ccc(-c2cc(Cl)ccc2F)cc1)NC(=O)c1c[nH]nn1)C(=O)O [Example 72, (2R,4R)-2-(5-Amino-pentanoylamino)-5-(5′-chloro-2′-fluorobiphenyl-4-yl)-4-[(1H-[1,2,3]triazole-4-carbonyl)amino]pentanoic Acid] | ≧9.0 |

Next, values leading:

| pKi | SMILES |
| --- | --- |
| ≧9.0 | CC(=O)NC[C@H](C[C@@H](Cc1ccc(-c2cc(Cl)ccc2F)cc1)NC(=O)c1c[nH]nn1)C(=O)O [Example 28, (2S,4S)-2-(Acetylaminomethyl)-5-(5′-chloro-2′-fluoro-biphenyl-4-yl)-4-[(1H-[1,2,3]triazole-4-carbonyl)amino]pentanoic Acid] |
| ≧9.0 | CCOC[C@H](C[C@@H](Cc1ccc(-c2cc(Cl)ccc2F)cc1)NC(=O)c1noc(=O)[nH]1)C(=O)O [Example 7-10, (2S,4S)-5-(5′-Chloro-2′-fluorobiphenyl-4-yl)-2-ethoxymethyl-4-[(5-oxo-4,5-dihydro-[1,2,4]oxadiazole-3-carbonyl)amino]pentanoic acid] |
| ≧9.0 | COC[C@H](C[C@@H](Cc1ccc(-c2cc(Cl)ccc2F)cc1)NC(=O)c1ccc(C(F)(F)F)cn1)C(=O)O [Example 2-14, (2S,4S)-5-(5′-Chloro-2′-fluorobiphenyl-4-yl)-2-methoxymethyl-4-[(5-trifluoromethylpyridine-2-carbonyl)amino]pentanoic acid] |
| ≧9.0 | CCOC[C@H](C[C@@H](Cc1ccc(-c2cccc(Cl)c2)cc1)NC(=O)c1noc(=O)[nH]1)C(=O)O [Example 9-5, (2S,4S)-5-(3′-Chlorobiphenyl-4-yl)-2-ethoxymethyl-4-[(5-oxo-4,5-dihydro-[1,2,4]oxadiazole-3-carbonyl)amino]pentanoic acid] |
| ≧9.0 | COC(=O)N[C@H](C[C@@H](Cc1ccc(-c2cc(Cl)ccc2F)cc1)NC(=O)c1cc(C(C)=O)n[nH]1)C(=O)O [Example 30-2, (2R,4R)-4-[(5-Acetyl-2H-pyrazole-3-carbonyl)-amino]-5-(5′-chloro-2′-fluoro-biphenyl-4-yl)-2-methoxycarbonylaminopentanoic acid] |
| ≧9.0 | CNC(=O)c1cc(C(=O)N[C@H](Cc2ccc(-c3cc(Cl)ccc3F)cc2)C[C@@H](N)C(=O)O)[nH]n1 [Example 16-21, (2R,4R)-2-Amino-5-(5′-chloro-2′-fluorobiphenyl-4-yl)-4-[(5-methylcarbamoyl-2H-pyrazole-3-carbonyl)amino]pentanoic acid] |
| ≧9.0 | CCOC[C@H](C[C@@H](Cc1ccc(-c2cc(Cl)ccc2F)cc1)NC(=O)c1c[nH]c(=O)o1)C(=O)O [Example 7-9, (2S,4S)-5-(5′-Chloro-2′-fluorobiphenyl-4-yl)-2-ethoxymethyl-4-[(2-oxo-2,3-dihydro-oxazole-5-carbonyl)amino]pentanoic acid] |
| ≧9.0 | CCCc1nc(C(=O)N[C@H](Cc2ccc(-c3cc(Cl)ccc3F)cc2Cl)C[C@@H](N)C(=O)O)co1 [Example 18-2, (2R,4R)-2-Amino-5-(3,5′-dichloro-2′-fluorobiphenyl-4-yl)-4-[(2-propyloxazole-4-carbonyl)amino]pentanoic acid] |
